Results taken from patent US9243037B2, “Gramicidin a mutants that function as antibiotics with improved solubility and reduced toxicity” (Trustees of Boston College, priority 2011, dated 2016).
“Also recorded” adds a separate entry of the source.

How the values were obtained:
[1] = system: Bacillus subtilis (ATCC 663)
[2] = K+ leakage from liposomes; assay type: biochemical; conditions: FIG. 4B; in words
Protocol: A chloroform solution containing 76 mg of POPC (for POPC LUVs) or a chloroform/meol (1/1) containing 38 mg of POPC and 38.5 mg POPG sodium salt (for POPC/POPG LUVs, POPC:POPG=1:1) was dried under reduced pressure to form a thin film, which was then […] with 2 mL aqueous buffer: (1) 10 mM HEPES, 150 mM KCl, pH 7.0 for K+ leakage assay; (2) 10 mM TES, 100 mM sodium citrate, 50 mM TbCl3, pH 7.0 for Tb3+ leakage assay; (3) 10 mM HEPES, 150 mM NaCl, pH 7.0 for peptide binding assay. After 20 cycles of freezing and thawing, the liposome suspension was extruded 21 times through a 100 nm polycarbonate membrane (LIPOSOFAST Mini Extrusion system, Avanti Polar Lipids; Whatman Nuclepore Track-Etch Membrane) at RT. Free K+ or Tb3+ were removed by gel filtration (ÄKTA FPLC with HIPREP™ 16/60 Sephacryl TM-S-500HR column) using Buffer A for (1) and (3) or Buffer B for (2) as the eluents. The lipid concentration was determined by the Stewart assay and the size of liposome was confirmed by Dynamic Light Scattering (DLS, DYNAPRO NANOSTAR, Wyatt, Santa Barbara, Calif.). After gel filtration the polydispersity of all liposome are below 20%.
The K+ leakage from liposomes was determined by a potassium ion selective electrode (K-ISE, Cole-Parmer, Vernon Hills, Ill.). […] Three minutes after each peptide addition, the K+ concentration was measured and reported as the K-ISE potential. […]

[3] = system: human red blood cells (hRBCs); assay: K+ leakage from hRBCs (flame atomic emission); assay type: cell-based
Protocol: The rest of supernatant (1.2 mL) from each sample prepared as described in the hemoglobin leakage assay was transferred into a new sterile eppendorf tube and subject to the K+ concentration measurement using a flame-atomic emission spectrometer (λem=766.5 nm, Perkin Elmer Atomic absorption Spectrometer 3100, acetylene/air flame). Three readings were taken for each sample and averaged as final results. The fraction of K+ leakage from hRBCs was calculated as percentage K+ leaked=100·(I776.5,peptide−I776.5,DMSO)/(I776.5,complete lysis−I776.5,DMSO).

[4] = Tb3+ leakage from liposomes, lipid not specified; assay type: biochemical; conditions: at peptide concentrations causing complete K+ release; in words
[5] = Trp absorbance @ 280 nm; 10 mM PBS, pH 7.0, 1% DMSO; values taken from ref; cited from earlier work
[6] = system: Streptococcus pyogenes (ATCC 19615)
[7] = Peptide distribution in EYPC LUVs by Trp fluorescence; assay type: binding; conditions: peptide added to LUVs; in words
Protocol: The peptides distribution was determined by monitoring Trp fluorescence and the channel activity was determined by monitoring the proton leakage from LUVs using a pH sensitive fluorescence dye HPTS. […]

[8] = Peptide binding onto membranes (Trp fluorescence); conditions: negatively charged POPC/POPG vesicles; in words
[9] = Peptide binding onto membranes (Trp fluorescence); conditions: neutral POPC vesicles; in words
[10] = system: human red blood cells (hRBCs); assay: Haemoglobin release from human red blood cells; assay type: cell-based; conditions: red cells of human
In short: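 Washed fresh human RBCs at 1% (v/v) in PBS were incubated with 2-fold serial peptide dilutions (DMSO vehicle) for 1 h at 37 °C, then centrifuged. Haemoglobin in the supernatant was read at 415 nm. % hemolysis was taken relative to DMSO blank and 1% Triton X-100 complete lysis.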

MCF-7 = assay: MTT toxicity assay; assay type: cell-based, human
Protocol: (§1) Toxicity of gA-WT and gA-5 was tested against two human cancer cell lines, HeLa and MCF-7 (gifts from Professor Eranthie Weerapana at Boston College) by using the MTT assay as described in the protocol provided by Invitrogen.[5] HeLa cells (in DMEM high glucose media with 10% FBS, 1% Pen/Strep, 37° C., 5% CO2) and MCF-7 cells (in RPMI media with 10% FBS and 1% Pen/Strep, 37° C., 5% CO2) were grown to about 80% confluent before removed from the surface of a 20 cm petri-dish with […] with EDTA (3-5 mins, 37° C., 5% CO2). Cells were pelleted (3,500 rpm, 5 mins at 4° C.), and plated at 15,000 cells per well (100 μL per well), then incubated for 48 hrs before peptide addition.
(§2) Stock solutions of gA in DMSO with varied concentrations were prepared so that for each peptide concentration the total volume of DMSO addition was kept constant at 1% (v/v). For each peptide concentration, samples were set up as four replicates. Control wells were loaded with 1 μL of DMSO. After overnight incubation, cells were washed once with PBS before being incubated for 4 hrs with 110 μL of 12 mM 3-(4,5-Dimethylthiazol-2-yl)-2,5-diphenyltetrazolium bromide (MTT) dissolved in RPMI media. The MTT assay was quenched with 100 μL of 10% SDS in 0.01 M HCl and allowed to incubate overnight before absorbance at 570 nm was recorded. Wells were averaged and standard deviations determined for each peptide concentration. Data were normalized to the DMSO control to give % cell survival (see FIG. 3).

HeLa = assay: MTT toxicity assay; assay type: cell-based, human
Protocol: as §1, §2

## CC(C)C[C@@H](NC(=O)[C@H](C)NC(=O)CNC(=O)[C@@H](NC=O)C(C)C)C(=O)N[C@@H](C)C(=O)N[C@@H](C(=O)N[C@H](C(=O)N[C@@H](C(=O)N[C@@H](Cc1c[nH]c2ccccc12)C(=O)N[C@H](CCCCN)C(=O)N[C@@H](Cc1c[nH]c2ccccc12)C(=O)N[C@H](CCCCN)C(=O)N[C@@H](Cc1c[nH]c2ccccc12)C(=O)N[C@H](CCCCN)C(=O)N[C@@H](Cc1c[nH]c2ccccc12)C(=O)NCCO)C(C)C)C(C)C)C(C)C (racemic) [gA-5, formyl-V-G-A-dL-A-dV-V-dV-W-dK-W-dK-W-dK-W-NHCH2CH2OH]
[1]; ATCC 663
  MICs B. Subtilius: 5 µM
[1]; B. subtilis
  MIC relative to wild-type Gramicidin A: equivalent to or ˜2-fold higher
[1]; B. subtilis, in words
  antibacterial activity: highly potent
[2]
  K+ leakage from negatively charged liposomes: lack of K+ leakage
[3]
  KC50 (50% K+ ion leakage relative to 1% TritonX-100): >100 µM
  peptide concentration for 50% K+ ion leakage, fold greater than wild-type Gramicidin A: over 10^6 fold
[4]
  Tb3+ leakage from LUVs: essentially no Tb3+ leakage; also recorded: little to no difference
[5]
  Sat. Conc, Lys series: 72 µM
[6]; ATCC 19615
  MICs S. Pyogenes: 0.62 µM
[6]; S. Pyogenes
  MIC relative to wild-type Gramicidin A: equivalent to or ˜2-fold higher
[6]; S. pyogenes, in words
  antibacterial activity: highly potent
[7]
  binding to EYPC LUVs: neither peptides bound to EYPC LUVs upon addition
[8]
  apparent dissociation constant (Kd) / binding: dropped by a marginal four fold
[9]
  apparent dissociation constant (Kd) / binding: no detectable binding
[10]
  HC50 (50% haemoglobin leakage relative to 1% TritonX-100): >100 µM
MCF-7
  toxicity, cell survival (MTT): essentially unaffected
HeLa
  toxicity, cell survival (MTT): essentially unaffected
